The experiment concerns 12-week obese AgRP-Cas9 mice. The experiment is described as follows: I.C.V. fluorosamine in obese AgRP-Cas9 mice given AAV-gScrambled or AAV-gIR. The format is in vivo. On the procedure: To disassemble the CSPG-ECM within the ARC, mice received bilaterally (unless stated otherwise) administration of 15 mU/side of active chABC (C3667, Sigma, St. Louis, […], dissolved in 1 M trehalose) or heat-inactivated chABC protein as a vehicle (chABC in 1 M trehalose was heat-inactivated at 85° C. for 45 mins, as described previously by Alonge et al., 2020) in a total volume of 150 nl/side. To pulse the CSPG-ECM within the ARC or RSG, mice received bilateral (unless stated otherwise) administration of biotinylated WFA (0.3 μg/side, in a volume of 150 nl). To disrupt IR in AgRP neurons, 12-week HFHS fed AgRP-Cas9 mice were stereotaxically injected with AAVs expressing U6-driven guide RNA's targeting the InsR gene or a scrambled sequence (5′ GTGTAGTTCGACCATTCGTG ′3 (SEQ ID NO: 14)) alongside a CAG driven mCherry FLEX switch. Unless otherwise stated injections were bilaterally into the ARC (coordinates, bregma: anterior-posterior, −1.70 mm; dorsal-ventral, −5.85 mm; lateral, +/−0.18 mm, 200 nl/side) or into the RSG (coordinates, bregma: anterior-posterior, −1.40 mm; dorsal-ventral, −1.80 mm; lateral, +/−0.50 mm, 200 nl/side). WFA-biotin was injected unilaterally into the cc (coordinates, bregma: anterior-posterior, −1.40 mm; dorsal-ventral, −5.80 mm; lateral, +/−0.20 mm, 200 nl/side)
To generate AAV-gScrambled (pAAV-U6>mScramble-[…] (SEQ ID NO: 14))-CAG>LL:rev(mCherry):rev(LL):WPRE) and AAV-gIR (pAAV[-U6>mInsr[gRNA-[…] (SEQ ID NO: 15)]-U6>mInsr[gRNA-[…] (SEQ ID NO: 16)]-CAG>LL:rev(mCherry):rev(LL):WPRE) viral vectors, sgRNAs were first designed using online CRISPR tools (http://crispr.mit.edu and http://chopchop.cbu.uib.no/). […] For AAV-gScrambled a pUp-U6>Scramble gRNA vector was generated using the Gibson assembly of a pDONR P4-P1R backbone and primers 5′ […] ′3 (SEQ ID NO: 17) and 5′ […] ′3 (SEQ ID NO: 18). For AAV-gIR a pUp-U6>mInsr[gRNA-[…] (SEQ ID NO: 15)]-U6>mInsr[gRNA-[…] (SEQ ID NO: 16)] gRNA vector was generated using the Gibson assembly of a AarI digested pUp-U6-gRNA-AarI-Stuffer-AarI backbone and primers 5′ […] ′3 (SEQ ID NO: 19) and 5′ […] ′3 (SEQ ID NO: 20). For both AAV-gScrambled and AAV-gIR the p-Up vectors were cloned alongside pDown-CAG and pTail-LL:rev(mCherry):rev(LL) to generate the final vectors by LR reaction using the Gateway method. AAV vectors were packaged into the AAV-DJ/8 steotype at a titre of >2 10^13 GC/ml). All vector cloning and AAV packaging was carried out by VectorBuilder (Chicago, IL).
Under isoflurane anaesthetic 12-week HFHS fed C57BL/6J or AgRP-Cas9 mice were implanted stereotaxically with guide cannulas into the right lateral ventricle (0.2 mm posterior, 1.0 mm lateral from bregma). Guide cannula was positioned 1.3 mm above the injection site (1 mm ventral to the surface of the skull). AgRP-Cas9 mice were treated with either AAV-gScrambled or AAV-gIR and underwent guide cannula placement 7 days post AAV administration. Mice were administered I.C.V. vehicle (ddH2O), fluorosamine (100 μg/animal/day or 250 μgl/animal/day) in a volume of 2 μl/animal and all compounds were delivered approximately 1 h before lights off (7 pm).

The mark [1] stands for this setting: AAV-gScrambled AgRP-Cas9 mice, 100 μg/animal I.C.V. daily for 10 days.

Molecules are shown by their SMILES.

On to `CC(=O)NC1C(OC(C)=O)OC(COC(C)=O)[C@@H](F)C1OC(C)=O` (stereo partly drawn) [PZ6005, per-O-acetylated-4-F-N-acetylglucosamine], for which the positive metabolic outcomes (AAV-IR AgRP-Cas9 mice) was “mitigated, at least in part”. Further, under setting [1], the adiposity entry is reported as “reduced adiposity”, the body weight entry is “promoted weight loss”, the caloric intake entry is reported as “attenuated caloric intake” and the energy expenditure result is “enhanced energy expenditure”. The glycaemic control entry under setting [1] is recorded as “improved glycaemic control”.

The record behind these values is patent US20260191933A1, “PHARMACEUTICAL COMBINATIONS AND USES THEREOF” (The University of Melbourne, priority 2022, published 2026).
